Measurements taken from ChEMBL document CHEMBL1135043, “A neural network based virtual screening of cytochrome P450 3A4 inhibitors” (Bioorg Med Chem Lett, 2002).

Target: Cytochrome P450 3A4 (Homo sapiens, UniProt P08684)
Test: Inhibition of cytochrome P450 3A4

Cytochrome P450 3A4, sequence (P08684 whole entry): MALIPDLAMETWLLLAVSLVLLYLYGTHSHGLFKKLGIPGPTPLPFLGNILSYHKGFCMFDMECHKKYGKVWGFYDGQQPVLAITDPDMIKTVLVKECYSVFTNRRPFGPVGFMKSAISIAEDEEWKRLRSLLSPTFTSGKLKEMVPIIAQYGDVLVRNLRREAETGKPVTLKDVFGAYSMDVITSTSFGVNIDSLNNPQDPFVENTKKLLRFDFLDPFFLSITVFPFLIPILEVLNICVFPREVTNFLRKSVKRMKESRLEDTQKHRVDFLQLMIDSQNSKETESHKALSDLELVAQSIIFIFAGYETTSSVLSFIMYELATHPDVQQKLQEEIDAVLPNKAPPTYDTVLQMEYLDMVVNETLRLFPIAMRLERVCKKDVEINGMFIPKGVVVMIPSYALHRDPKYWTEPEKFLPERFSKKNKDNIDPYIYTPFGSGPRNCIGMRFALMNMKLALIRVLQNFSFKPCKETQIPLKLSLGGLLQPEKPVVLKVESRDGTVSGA

Structure (SMILES)	Inhibitory index
COCCCOc1ccnc(C[S+]([O-])c2nc3ccccc3[nH]2)c1C (configuration not stated) [RABEPRAZOLE]	0.82
CC(C)(C)c1cc(CC2SCNC2=O)cc(C(C)(C)C)c1O (configuration not stated) [TAZOFELONE]	0.39
CN1[C@@H]2CC[C@H]1C[C@@H](NC(=O)c1cc(Cl)cc3c1OC(C)(C)C3)C2 [ZATOSETRON]	0.8

Further lines, results first:

Inhibitory index	Structure (SMILES)
0.8	CN1CCC(c2c[nH]c3ccc(NC(=O)c4ccc(F)cc4)cc23)CC1
0.86	COc1ccccc1CN(CC(Cc1c[nH]c2ccccc12)NC(=O)CN1CCC(N2CCCCC2)CC1)C(C)=O (configuration not stated)
0.88	O[C@@H](COc1cccc2ncccc12)CN1CCN([C@@H]2c3ccccc3[C@@H]3[C@H](c4ccccc42)C3(F)F)CC1
0.88	OC(COc1cccc2ncccc12)CN1CCN(C2c3ccccc3C3CC3c3ccccc32)CC1 (configuration not stated)
